According to the supplement of paper PMC10307832:

Columns and labels:
Experiment in all cases: relative viability (nuclei count vs DMSO), 5 days (fraction); higher = more cells survive
201T = system: 201T
Method in brief: (§1)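 A single step with final 0.05% Triton X-100, 1% formaldehyde and 1 ug/ml Hoechst fixed the cells and stained nuclei 5 days after treatment. Lung cancer cell lines in 1536-well plates had been treated by pin tool the day after seeding with one drug alone or a fixed anchor-drug dose plus five library-drug doses (not always all listed) in √10 steps, and nuclei were counted on 4× images. Relative viability is the ratio of nuclei in treated wells to nuclei in vehicle wells, taken as the median of duplicate plates.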

CAL-12T = system: CAL-12T
Method in brief: as §1

ChaGo-K-1 = system: ChaGo-K-1
Method in brief: as §1

EMC-BAC-2 = system: EMC-BAC-2
Method in brief: as §1

H3255 = system: H3255
Method in brief: as §1

HOP-62 = system: HOP-62
Method in brief: as §1

LK-2 = system: LK-2
Method in brief: as §1

LXF-289 = system: LXF-289
Method in brief: as §1

NCI-H1651 = system: NCI-H1651
Method in brief: as §1

NCI-H1734 = system: NCI-H1734
Method in brief: as §1

NCI-H1755 = system: NCI-H1755
Method in brief: as §1

NCI-H2009 = system: NCI-H2009
Method in brief: as §1

NCI-H2087 = system: NCI-H2087
Method in brief: as §1

NCI-H2126 = system: NCI-H2126
Method in brief: as §1

NCI-H2170 = system: NCI-H2170
Method in brief: as §1

NCI-H3122 = system: NCI-H3122
Method in brief: as §1

NCI-H322M = system: NCI-H322M
Method in brief: as §1

NCI-H441 = system: NCI-H441
Method in brief: as §1

NCI-H596 = system: NCI-H596
Method in brief: as §1

NCI-H647 = system: NCI-H647
Method in brief: as §1

PC-14 = system: PC-14
Method in brief: as §1

SK-MES-1 = system: SK-MES-1
Method in brief: as §1

Compound `O=C(O)CCCCC(CCSCc1ccccc1)SCc1ccccc1` (stereo not given) [CPI-613] + CC(=O)Nc1cccc(-n2c(=O)n(C3CC3)c(=O)c3c(Nc4ccc(I)cc4F)n(C)c(=O)c(C)c32)c1 [Trametinib] (partner 0.02 µM) has a relative viability (201T; first compound 5 µM) of 0.709, a relative viability (201T; first compound 15.81 µM) of 0.701 and a relative viability (201T; first compound 50 µM) of 0.668. For the same compound, the relative viability (201T; first compound 158.11 µM) was 0.421, the relative viability (201T; first compound 500 µM) was 0.408 and the relative viability (CAL-12T; first compound 5 µM) was 0.286. For the same compound, the relative viability (CAL-12T; first compound 15.81 µM) was 0.309, the relative viability (CAL-12T; first compound 50 µM) was 0.325 and the relative viability (CAL-12T; first compound 158.11 µM) was 0.0954. For the same compound, the relative viability (CAL-12T; first compound 500 µM) was 0.038, the relative viability (ChaGo-K-1; first compound 5 µM) was 0.853 and the relative viability (ChaGo-K-1; first compound 15.81 µM) was 0.876. It also gave a relative viability (ChaGo-K-1; first compound 50 µM) of 0.847, a relative viability (ChaGo-K-1; first compound 158.11 µM) of 0.29 and a relative viability (ChaGo-K-1; first compound 500 µM) of 0.391. For the same compound, the relative viability (EMC-BAC-2; first compound 5 µM) was 0.928, the relative viability (EMC-BAC-2; first compound 15.81 µM) was 0.884 and the relative viability (EMC-BAC-2; first compound 50 µM) was 0.906. The relative viability (EMC-BAC-2; first compound 158.11 µM) was 0.521, the relative viability (EMC-BAC-2; first compound 500 µM) was 0.639 and the relative viability (H3255; first compound 5 µM) was 0.61. It also gave a relative viability (H3255; first compound 15.81 µM) of 0.6, a relative viability (H3255; first compound 50 µM) of 0.654 and a relative viability (H3255; first compound 158.11 µM) of 0.62. The relative viability (H3255; first compound 500 µM) was 0.598, the relative viability (HOP-62; first compound 5 µM) was 0.394 and the relative viability (HOP-62; first compound 15.81 µM) was 0.402. It also gave a relative viability (HOP-62; first compound 50 µM) of 0.351, a relative viability (HOP-62; first compound 158.11 µM) of 0.267 and a relative viability (HOP-62; first compound 500 µM) of 0.129. The relative viability (LK-2; first compound 5 µM) was 0.702, the relative viability (LK-2; first compound 15.81 µM) was 0.786 and the relative viability (LK-2; first compound 50 µM) was 0.93. For the same compound, the relative viability (LK-2; first compound 158.11 µM) was 0.856, the relative viability (LK-2; first compound 500 µM) was 0.792 and the relative viability (LXF-289; first compound 5 µM) was 0.653. It also gave a relative viability (LXF-289; first compound 15.81 µM) of 0.659, a relative viability (LXF-289; first compound 50 µM) of 0.665 and a relative viability (LXF-289; first compound 158.11 µM) of 0.446. For the same compound, the relative viability (LXF-289; first compound 500 µM) was 0.572, the relative viability (NCI-H1651; first compound 5 µM) was 0.771 and the relative viability (NCI-H1651; first compound 15.81 µM) was 0.771. For the same compound, the relative viability (NCI-H1651; first compound 50 µM) was 0.848, the relative viability (NCI-H1651; first compound 158.11 µM) was 0.783 and the relative viability (NCI-H1651; first compound 500 µM) was 0.765. The relative viability (NCI-H1734; first compound 5 µM) was 0.615, the relative viability (NCI-H1734; first compound 15.81 µM) was 0.631 and the relative viability (NCI-H1734; first compound 50 µM) was 0.593. It also gave a relative viability (NCI-H1734; first compound 158.11 µM) of 0.482, a relative viability (NCI-H1734; first compound 500 µM) of 0.101 and a relative viability (NCI-H1755; first compound 5 µM) of 0.712. The relative viability (NCI-H1755; first compound 15.81 µM) was 0.775, the relative viability (NCI-H1755; first compound 50 µM) was 0.75 and the relative viability (NCI-H1755; first compound 158.11 µM) was 0.702. For the same compound, the relative viability (NCI-H1755; first compound 500 µM) was 0.69, the relative viability (NCI-H2009; first compound 5 µM) was 0.319 and the relative viability (NCI-H2009; first compound 15.81 µM) was 0.257. For the same compound, the relative viability (NCI-H2009; first compound 50 µM) was 0.302, the relative viability (NCI-H2009; first compound 158.11 µM) was 0.081 and the relative viability (NCI-H2009; first compound 500 µM) was 0.027. The relative viability (NCI-H2087; first compound 5 µM) was 0.207, the relative viability (NCI-H2087; first compound 15.81 µM) was 0.16 and the relative viability (NCI-H2087; first compound 50 µM) was 0.159. It also gave a relative viability (NCI-H2087; first compound 158.11 µM) of 0.0653, a relative viability (NCI-H2087; first compound 500 µM) of 0.003 and a relative viability (NCI-H2126; first compound 5 µM) of 0.528. For the same compound, the relative viability (NCI-H2126; first compound 15.81 µM) was 0.538, the relative viability (NCI-H2126; first compound 50 µM) was 0.615 and the relative viability (NCI-H2126; first compound 158.11 µM) was 0.232. The relative viability (NCI-H2126; first compound 500 µM) was 0.193, the relative viability (NCI-H2170; first compound 5 µM) was 0.95 and the relative viability (NCI-H2170; first compound 15.81 µM) was 0.968. The relative viability (NCI-H2170; first compound 50 µM) was 0.892, the relative viability (NCI-H2170; first compound 158.11 µM) was 0.686 and the relative viability (NCI-H2170; first compound 500 µM) was 0.546. The relative viability (NCI-H3122; first compound 5 µM) was 0.232, the relative viability (NCI-H3122; first compound 15.81 µM) was 0.25 and the relative viability (NCI-H3122; first compound 50 µM) was 0.295. For the same compound, the relative viability (NCI-H3122; first compound 158.11 µM) was 0.215, the relative viability (NCI-H3122; first compound 500 µM) was 0.227 and the relative viability (NCI-H322M; first compound 5 µM) was 0.427. It also gave a relative viability (NCI-H322M; first compound 15.81 µM) of 0.485, a relative viability (NCI-H322M; first compound 50 µM) of 0.454 and a relative viability (NCI-H322M; first compound 158.11 µM) of 0.516. It also gave a relative viability (NCI-H322M; first compound 500 µM) of 0.514, a relative viability (NCI-H441; first compound 5 µM) of 0.426 and a relative viability (NCI-H441; first compound 15.81 µM) of 0.429. It also gave a relative viability (NCI-H441; first compound 50 µM) of 0.343, a relative viability (NCI-H441; first compound 158.11 µM) of 0.322 and a relative viability (NCI-H441; first compound 500 µM) of 0.003. It also gave a relative viability (NCI-H596; first compound 5 µM) of 0.823, a relative viability (NCI-H596; first compound 15.81 µM) of 0.732 and a relative viability (NCI-H596; first compound 50 µM) of 0.765. For the same compound, the relative viability (NCI-H596; first compound 158.11 µM) was 0.34, the relative viability (NCI-H596; first compound 500 µM) was 0.036 and the relative viability (NCI-H647; first compound 5 µM) was 0.378. For the same compound, the relative viability (NCI-H647; first compound 15.81 µM) was 0.388, the relative viability (NCI-H647; first compound 50 µM) was 0.38 and the relative viability (NCI-H647; first compound 158.11 µM) was 0.0824. The relative viability (NCI-H647; first compound 500 µM) was 0.0504, the relative viability (PC-14; first compound 5 µM) was 0.651 and the relative viability (PC-14; first compound 15.81 µM) was 0.549. It also gave a relative viability (PC-14; first compound 50 µM) of 0.72, a relative viability (PC-14; first compound 158.11 µM) of 0.108 and a relative viability (PC-14; first compound 500 µM) of 0.0098. It also gave a relative viability (SK-MES-1; first compound 5 µM) of 0.534, a relative viability (SK-MES-1; first compound 15.81 µM) of 0.49 and a relative viability (SK-MES-1; first compound 50 µM) of 0.523. For the same compound, the relative viability (SK-MES-1; first compound 158.11 µM) was 0.201 and the relative viability (SK-MES-1; first compound 500 µM) was 0.132.
